# Measurements from US11078228B2, “Ectonucleotidase inhibitors and methods of use thereof” (Calithera Biosciences, Inc., priority 2018, dated 2021).
# Molecular target: recombinant CD73 (Homo sapiens (Human), UniProt P21589)
# Experiment: Assay 2: Inhibition of the CD73 enzyme in vitro (0.05 nM CD73, 1 hour 37° C., Malachite Green)
# Type: biochemical
# Details: 0.05 nM CD73, 50 μM AMP, 1 hour at 37° C.
# In short: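 Free phosphate was quantified from absorbance at 630 nm against a phosphate standard curve. This was read 5 min after Malachite Green was added at room temperature. Beforehand, the recombinant soluble enzyme reacted for 1 hour at 37° C.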
# Sequence of recombinant CD73 (P21589 27-547): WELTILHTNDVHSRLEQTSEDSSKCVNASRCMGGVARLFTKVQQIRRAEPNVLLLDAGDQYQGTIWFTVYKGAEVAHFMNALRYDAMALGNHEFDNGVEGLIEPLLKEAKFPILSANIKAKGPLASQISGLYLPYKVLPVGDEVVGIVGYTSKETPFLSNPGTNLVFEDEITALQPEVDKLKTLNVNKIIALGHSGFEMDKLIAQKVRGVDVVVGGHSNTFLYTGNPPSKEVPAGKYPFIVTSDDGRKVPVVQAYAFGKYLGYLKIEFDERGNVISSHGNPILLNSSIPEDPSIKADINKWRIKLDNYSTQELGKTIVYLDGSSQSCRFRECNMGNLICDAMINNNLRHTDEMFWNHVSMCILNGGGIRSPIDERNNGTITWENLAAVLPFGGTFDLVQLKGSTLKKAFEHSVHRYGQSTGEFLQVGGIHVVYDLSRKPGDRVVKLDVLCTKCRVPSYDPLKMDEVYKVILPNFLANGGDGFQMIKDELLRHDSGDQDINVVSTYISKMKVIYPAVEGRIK
row,Structure (SMILES),IC50 [nM]
1,"C#C[C@@]1(O)[C@@H](COC(Cc2cc(C)on2)(C(=O)O)C(=O)O)O[C@@H](n2cnc3c(NCc4ccc(F)cc4)nc(Cl)nc32)[C@@H]1O [Example 111, 2-(((2R,3S,4R,5R)-5-(2-chloro-6-((4-fluorobenzyl)amino)-9H-purin-9-yl)-3-ethynyl-3,4-dihydroxytetrahydrofuran-2-yl)methoxy)-2-((5-methylisoxazol-3-yl)methyl)malonic acid]",2670
2,"C#C[C@@]1(O)[C@@H](COC(Cc2ccc(N3CCCNC3=O)cc2)(C(=O)O)C(=O)O)O[C@@H](n2nc(C)c3ccc(Cl)nc32)[C@@H]1O [Example 131, 2-(((2R,3S,4R,5R)-5-(6-chloro-3-methyl-1H-pyrazolo[3,4-b]pyridin-1-yl)-3-ethynyl-3,4-dihydroxytetrahydrofuran-2-yl)methoxy)-2-(4-(2-oxotetrahydropyrimidin-1(2H)-yl)benzyl)malonic acid]",> 100
3,"C#C[C@@]1(O)[C@@H](COC(Cc2ccccc2)(C(=O)O)C(=O)OCC)O[C@@H](n2cnc3c(NCc4ccccc4Cl)nc(Cl)nc32)[C@@H]1O (stereo partly drawn) [Example 108, 2-benzyl-2-(((2R,3S,4R,5R)-5-(2-chloro-6-((2-chlorobenzyl)amino)-9H-purin-9-yl)-3-ethynyl-3,4-dihydroxytetrahydrofuran-2-yl)methoxy)-3-ethoxy-3-oxopropanoic acid]",3
4,"C#C[C@@]1(O)[C@@H](COC(C)(C(=O)O)C(=O)O)O[C@@H](n2cnc3c(N)nc(Cl)nc32)[C@@H]1O [Example 17, 2-(((2R,3S,4R,5R)-5-(6-amino-2-chloro-9H-purin-9-yl)-3-ethynyl-3,4-dihydroxytetrahydrofuran-2-yl)methoxy)-2-methylmalonic acid]",347
5,"C#C[C@@]1(O)[C@@H](COC(Cc2ccccc2)(C(=O)O)C(=O)O)O[C@@H](n2cnc3c(-c4ccccc4)nc(Cl)nc32)[C@@H]1O [Example 14, 2-benzyl-2-(((2R,3S,4R,5R)-5-(2-chloro-6-phenyl-9H-purin-9-yl)-3-ethynyl-3,4-dihydroxytetrahydrofuran-2-yl)methoxy)malonic acid]",0.6
6,"C#C[C@@]1(O)[C@@H](COC(Cc2ccccc2)(C(=O)O)C(=O)O)O[C@@H](n2cnc3c(NCC(=O)O)nc(Cl)nc32)[C@@H]1O [Example 76, 2-benzyl-2-(((2R,3S,4R,5R)-5-(6-((carboxymethyl)amino)-2-chloro-9H-purin-9-yl)-3-ethynyl-3,4-dihydroxytetrahydrofuran-2-yl)methoxy)malonic acid]",6
7,"C#C[C@@]1(O)[C@@H](COC(Cc2ccccc2)(C(=O)O)C(=O)O)O[C@@H](n2cnc3c(NCC(C)(C)O)nc(Cl)nc32)[C@@H]1O [Example 94, 2-benzyl-2-(((2R,3S,4R,5R)-5-(2-chloro-6-((2-hydroxy-2-methylpropyl)amino)-9H-purin-9-yl)-3-ethynyl-3,4-dihydroxytetrahydrofuran-2-yl)methoxy)malonic acid]",5
8,"C#C[C@@]1(O)[C@@H](COC(CC)(C(=O)O)C(=O)O)O[C@@H](n2cnc3c(N)nc(Cl)nc32)[C@@H]1O [Example 16, 2-(((2R,3S,4R,5R)-5-(6-amino-2-chloro-9H-purin-9-yl)-3-ethynyl-3,4-dihydroxytetrahydrofuran-2-yl)methoxy)-2-ethylmalonic acid]",24
9,"C#C[C@@]1(O)[C@@H](CO[C@](Cc2ccccc2)(C(=O)O)c2cscn2)O[C@@H](n2cnc3c(NCC4CC4)nc(Cl)nc32)[C@@H]1O (single isomer, unassigned) [Example 172]",6
10,"C#C[C@@]1(O)[C@@H](COC(C(=O)O)C(=O)O)O[C@@H](n2cnc3c(NCc4ccccc4)nc(Cl)nc32)[C@@H]1O [Example 118, 2-(((2R,3S,4R,5R)-5-(6-(benzylamino)-2-chloro-9H-purin-9-yl)-3-ethynyl-3,4-dihydroxytetrahydrofuran-2-yl)methoxy)malonic acid]",48
11,"C#C[C@@]1(O)[C@@H](COC(Cc2ccccc2)(C(=O)O)C(=O)O)O[C@@H](n2cnc3c(NCCc4ccccc4)nc(Cl)nc32)[C@@H]1O [Example 70, 2-benzyl-2-(((2R,3S,4R,5R)-5-(2-chloro-6-(phenethylamino)-9H-purin-9-yl)-3-ethynyl-3,4-dihydroxytetrahydrofuran-2-yl)methoxy)malonic acid]",1
12,"C#C[C@@]1(O)[C@@H](COC(Cc2ccccc2)(C(=O)O)C(=O)O)O[C@@H](n2cnc3c(NO)nc(Cl)nc32)[C@@H]1O [Example 168, 2-benzyl-2-(((2R,3S,4R,5R)-5-(2-chloro-6-(hydroxyamino)-9H-purin-9-yl)-3-ethynyl-3,4-dihydroxytetrahydrofuran-2-yl)methoxy)malonic acid]",14
13,"C#C[C@@]1(O)[C@@H](COC(Cc2ccc(-c3cccn(CC)c3=O)cc2)(C(=O)O)C(=O)O)O[C@@H](n2cnc3c(NC)nc(Cl)nc32)[C@@H]1O [Example 130, 2-(((2R,3S,4R,5R)-5-(2-chloro-6-(methylamino)-9H-purin-9-yl)-3-ethynyl-3,4-dihydroxytetrahydrofuran-2-yl)methoxy)-2-(4-(1-ethyl-2-oxo-1,2-dihydropyridin-3-yl)benzyl)malonic acid]",0.36
14,"C#C[C@@]1(O)[C@@H](COC(Cc2ccccc2)(C(=O)O)C(=O)O)O[C@@H](n2cnc3c(NCCO)nc(Cl)nc32)[C@@H]1O [Example 97, 2-benzyl-2-(((2R,3S,4R,5R)-5-(2-chloro-6-((2-hydroxyethyl)amino)-9H-purin-9-yl)-3-ethynyl-3,4-dihydroxytetrahydrofuran-2-yl)methoxy)malonic acid]",2
15,"C#C[C@@]1(O)[C@@H](COC(Cc2ccccc2)(C(=O)O)C(=O)O)O[C@@H](n2cnc3c(N[C@H]4CCc5ccccc54)nc(Cl)nc32)[C@@H]1O [Example 72, 2-benzyl-2-(((2R,3S,4R,5R)-5-(2-chloro-6-(((S)-2,3-dihydro-1H-inden-1-yl)amino)-9H-purin-9-yl)-3-ethynyl-3,4-dihydroxytetrahydrofuran-2-yl)methoxy)-malonic acid]",3
16,"C#C[C@@]1(O)[C@@H](COC(Cc2ccccc2)(C(=O)O)C(=O)O)O[C@@H](n2cnc3c(N(C)C)nc(Cl)nc32)[C@@H]1O [Example 89, 2-benzyl-2-(((2R,3S,4R,5R)-5-(2-chloro-6-(dimethylamino)-9H-purin-9-yl)-3-ethynyl-3,4-dihydroxytetrahydrofuran-2-yl)methoxy)malonic acid]",1.1
17,"C#C[C@@]1(O)[C@@H](COC(Cc2ccc(N3CCCN(CCC)C3=O)cc2)(C(=O)O)C(=O)O)O[C@@H](n2cnc3c(N)nc(Cl)nc32)[C@@H]1O [Example 152, 2-(((2R,3S,4R,5R)-5-(6-amino-2-chloro-9H-purin-9-yl)-3-ethynyl-3,4-dihydroxytetrahydrofuran-2-yl)methoxy)-2-(4-(2-oxo-3-propyltetrahydropyrimidin-1 (2H)-yl)benzyl)malonic acid]",0.05
18,"C#C[C@@]1(O)[C@@H](COC(Cc2ccc(-c3ccccc3)c(C(=O)O)c2)(C(=O)O)C(=O)O)O[C@@H](n2cnc3c(N)nc(Cl)nc32)[C@@H]1O [Example 13, 2-(((2R,3S,4R,5R)-5-(6-amino-2-chloro-9H-purin-9-yl)-3-ethynyl-3,4-dihydroxytetrahydrofuran-2-yl)methoxy)-2-((2-carboxy-[1,1′-biphenyl]-4-yl)methyl)malonic acid]",0.3
19,"C#C[C@@]1(O)[C@@H](COC(Cc2ccccc2)(C(=O)O)C(=O)O)O[C@@H](n2cnc3c(N(C)C(C)C)nc(Cl)nc32)[C@@H]1O [Example 82, 2-benzyl-2-(((2R,3S,4R,5R)-5-(2-chloro-6-(isopropyl(methyl)amino)-9H-purin-9-yl)-3-ethynyl-3,4-dihydroxytetrahydrofuran-2-yl)methoxy)malonic acid]",2
20,"C#C[C@@]1(O)[C@@H](COC(Cc2ccccc2)(C(=O)O)C(=O)O)O[C@@H](n2cnc3c(-c4cnn(S(=O)(=O)c5ccc(C)cc5)c4)nc(Cl)nc32)[C@@H]1O [Example 159, 2-benzyl-2-(((2R,3S,4R,5R)-5-(2-chloro-6-(1-tosyl-1H-pyrazol-4-yl)-9H-purin-9-yl)-3-ethynyl-3,4-dihydroxytetrahydrofuran-2-yl)methoxy)malonic acid]",476
21,"C#C[C@@]1(O)[C@@H](COC(Cc2ccccc2)(C(=O)O)C(=O)O)O[C@@H](n2cnc3c(N(CCO)CCO)nc(Cl)nc32)[C@@H]1O [Example 37, 2-benzyl-2-(((2R,3S,4R,5R)-5-(6-(bis(2-hydroxyethyl)amino)-2-chloro-9H-purin-9-yl)-3-ethynyl-3,4-dihydroxytetrahydrofuran-2-yl)methoxy)malonic acid]",6
22,"C#C[C@@]1(O)[C@@H](COC(Cc2ccc(N3CCCN(CCO)C3=O)cc2)(C(=O)O)C(=O)O)O[C@@H](n2cnc3c(NC(C)C)nc(Cl)nc32)[C@@H]1O [Example 139, 2-(((2R,3S,4R,5R)-5-(2-chloro-6-(isopropylamino)-9H-purin-9-yl)-3-ethynyl-3,4-dihydroxytetrahydrofuran-2-yl)methoxy)-2-(4-(3-(2-hydroxyethyl)-2-oxotetrahydropyrimidin-1 (2H)-yl)benzyl)malonic acid]",0.13
23,"C#C[C@@]1(O)[C@@H](COC(C(=O)O)C(=O)O)O[C@@H](n2cnc3c(NC)nc(Cl)nc32)[C@@H]1O [Example 117, 2-(((2R,3S,4R,5R)-5-(2-chloro-6-(methylamino)-9H-purin-9-yl)-3-ethynyl-3,4-dihydroxytetrahydrofuran-2-yl)methoxy)malonic acid]",58
24,"C#C[C@@]1(O)[C@@H](COC(Cc2ccc(-c3ccc[nH]c3=O)cc2)(C(=O)O)C(=O)O)O[C@@H](n2cnc3c(NC)nc(Cl)nc32)[C@@H]1O [Example 147, 2-(((2R,3S,4R,5R)-5-(2-chloro-6-(methylamino)-9H-purin-9-yl)-3-ethynyl-3,4-dihydroxytetrahydrofuran-2-yl)methoxy)-2-(4-(2-oxo-1,2-dihydropyridin-3-yl)benzyl)malonic acid]",0.58
